Experimental data: ChEMBL document CHEMBL1142404, “Synthesis of 2-modified aristeromycins and their analogs as potent inhibitors against Plasmodium falciparum S-adenosyl-L-homocysteine hydrolase” (Bioorg Med Chem, 2008)

Columns and labels:
[1] = target: Adenosylhomocysteinase (Homo sapiens, UniProt P23526); assay: Inhibition of human SAHH
[2] = tested on: adenosine deaminase; assay: Metabolic stability in presence of calf intestinal adenosine deaminase assessed as compound remaining after 15 mins; assay type: ADME; conditions: cattle, read-out: Activity
[3] = target: Adenosylhomocysteinase (Plasmodium falciparum 3D7, UniProt P50250); assay: Inhibition of Plasmodium falciparum SAHH
Chain of Adenosylhomocysteinase (Plasmodium falciparum 3D7, UniProt P50250) (P50250 whole entry): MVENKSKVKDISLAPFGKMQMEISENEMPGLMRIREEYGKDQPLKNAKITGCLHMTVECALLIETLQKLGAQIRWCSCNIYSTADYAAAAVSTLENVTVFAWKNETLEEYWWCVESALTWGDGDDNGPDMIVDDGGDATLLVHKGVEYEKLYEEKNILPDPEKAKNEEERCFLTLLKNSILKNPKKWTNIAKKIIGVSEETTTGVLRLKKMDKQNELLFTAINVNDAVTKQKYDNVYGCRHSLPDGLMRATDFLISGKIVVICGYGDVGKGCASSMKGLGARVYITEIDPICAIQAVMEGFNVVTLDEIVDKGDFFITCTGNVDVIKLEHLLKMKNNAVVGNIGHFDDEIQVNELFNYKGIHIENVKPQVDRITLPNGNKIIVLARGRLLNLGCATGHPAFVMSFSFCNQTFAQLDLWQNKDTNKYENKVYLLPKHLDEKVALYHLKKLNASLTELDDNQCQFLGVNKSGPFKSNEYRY

Chain of Adenosylhomocysteinase (Homo sapiens, UniProt P23526) (P23526 whole entry): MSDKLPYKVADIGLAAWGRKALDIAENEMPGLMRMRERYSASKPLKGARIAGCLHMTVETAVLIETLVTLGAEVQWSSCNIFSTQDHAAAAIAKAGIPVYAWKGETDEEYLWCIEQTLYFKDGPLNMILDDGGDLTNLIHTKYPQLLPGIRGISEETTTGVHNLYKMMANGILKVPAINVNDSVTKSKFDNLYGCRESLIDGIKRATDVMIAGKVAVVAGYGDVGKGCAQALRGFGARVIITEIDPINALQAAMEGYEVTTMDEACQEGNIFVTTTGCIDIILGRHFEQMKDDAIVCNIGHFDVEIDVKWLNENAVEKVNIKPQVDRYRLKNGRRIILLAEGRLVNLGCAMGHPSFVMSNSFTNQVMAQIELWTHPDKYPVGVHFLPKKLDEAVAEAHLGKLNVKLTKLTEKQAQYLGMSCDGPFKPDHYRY

| IC50 [1] | remaining at 0.25 h [2] | IC50 [3] | Structure (SMILES) |
| --- | --- | --- | --- |
| 90.7 µM | 95.2% | 4.51 µM | Nc1nc(N)c2ncn([C@@H]3C[C@H](CO)[C@@H](O)[C@H]3O)c2n1 |
|  | 22.4% |  | Nc1ncnc2c1ncn2[C@@H]1C[C@H](CO)[C@@H](O)[C@H]1O [ARISTEROMYCIN] |
| 47.2 µM | 99.5% | 1.98 µM | Nc1nc(F)nc2c1ncn2[C@@H]1C[C@H](CO)[C@@H](O)[C@H]1O |
